From patent US20230200394A1, “SELECTIVE HERBICIDES BASED ON SUBSTITUTED ISOXAZOLIN CARBOXAMIDES AND BENOXACOR” (BAYER AKTIENGESELLSCHAFT, priority 2020, published 2023)

Tested on: ZEAMA Sileno
Assay: Safener seed treatment; pre-emergence herbicide application, visual scoring of % crop damage in greenhouse
Format: in vivo, maize
Conditions: for HER effect [%] / HER effect + SAF [%]: crop damage, pre-emergence; for HER effect [%]: herbicide alone (no safener); for HER effect + SAF [%]: seed treated with Benoxacor 0.25 g a.i./kg seed; for Reduction [Difference]: herbicide damage without safener minus with Benoxacor 0.25 g a.i./kg seed; for Reduction [%]: reduction of herbicide damage by Benoxacor 0.25 g a.i./kg seed, relative to damage without safener
Experimental: Seed Treatment; Pre-Emergence For the safener seed treatment, sufficient seeds of the respective crops (spring wheat, TRZAS; spring barley, HORVS; maize, ZEAMA) were weighed into screw top glass bottles approximately twice the volume of the seeds. The specified safeners, formulated as wettable powder (WP) were weighed out so that the specified rates (g a.i./kg seed) would be obtained, dissolved in water (1 ml water per 10 g of seeds), and added to the seeds to produce a slurry. The bottles were capped and then placed in an overhead shaker (set at medium speed for ca. 60 minutes) so that the seeds were evenly coated with the slurry. The bottles were uncapped and the seeds were either placed on paper and dried for an interval of 3-4 hours prior to sowing, or directly sown. Seeds were placed in sandy loam soil in pots of a diameter of 7-8 cm, and covered with soil. Pre-emergence application of the specified herbicides was done subsequently, on two sets of plants: a) seed treatment with safener, as described above b) no safener treatment The herbicides were formulated as WP and was sprayed onto the soil surface as an aqueous suspension at an equivalent water application rate of 300 l/ha. After application, the test plants were kept in the greenhouse under good growth conditions. At intervals up to 4 weeks after application (=28 days after treatment; DAT), % crop damage observed on the treated plants was scored visually in comparison to control plants that had not received any safener or herbicide treatment. Values in the table below are mean values of at least 2 replicates.

[1] = HER dose 40 g a.i./ha, assessment 26 DAT
[2] = HER dose 40 g a.i./ha, assessment 14 DAT
[3] = HER dose 80 g a.i./ha, assessment 14 DAT

| SMILES | HER effect [%] [1] [%] | HER effect + SAF [%] (HER dose 40 g a.i./ha, 26 DAT) | Reduction [Difference] (HER dose 40 g a.i./ha, 26 DAT) | Reduction [%] (HER dose 40 g a.i./ha, 26 DAT) | HER effect [%] [2] [%] | HER effect [%] [3] [%] | HER effect [%] (HER dose 80 g a.i./ha, assessment 26 DAT) | HER effect + SAF [%] (HER dose 40 g a.i./ha, 14 DAT) | HER effect + SAF [%] (HER dose 80 g a.i./ha, 14 DAT) | HER effect + SAF [%] (HER dose 80 g a.i./ha, 26 DAT) | Reduction [Difference] (HER dose 40 g a.i./ha, 14 DAT) | Reduction [Difference] (HER dose 80 g a.i./ha, 14 DAT) | Reduction [Difference] (HER dose 80 g a.i./ha, 26 DAT) | Reduction [%] (HER dose 40 g a.i./ha, 14 DAT) | Reduction [%] (HER dose 80 g a.i./ha, 14 DAT) | Reduction [%] (HER dose 80 g a.i./ha, 26 DAT) |
| --- | --- | --- | --- | --- | --- | --- | --- | --- | --- | --- | --- | --- | --- | --- | --- | --- |
| C=CC1(C(=O)NC2COC(C(=O)OC)C2)CC(c2cc(F)cc(F)c2)=NO1 (mixture of isomers) [Example 1.68] | 95 | 60 | 35 | 37 | – | – | – | – | – | – | – | – | – | – | – | – |
| C=CC1(C(=O)NC2C=CC(C(=O)OC)C2)CC(c2cc(F)cc(F)c2)=NO1 (stereo not shown) [Example 1.26] | 50 | 5 | 45 | 90 | 25 | 70 | 70 | 5 | 35 | 30 | 20 | 35 | 40 | 80 | 50 | 57 |
| CC1(C(=O)NC2C=CC(C(=O)O)C2)CC(c2cc(F)cc(F)c2)=NO1 (stereo not shown) [Example 1.36] | – | – | – | – | 60 | 83 | – | 40 | 60 | – | 20 | 23 | – | 33 | 28 | – |
